{
  "source": "patent US4204990A",
  "about": "“Somatostatin analogues” (American Home Products Corporation, priority 1978, dated 1980)",
  "format_in_all_cases": "in vivo, rat",
  "key": {"growth hormone [1]": {"tested_on": "growth hormone", "assay": "Duration of activity: plasma growth hormone by radioimmunoassay at hours after SC injection", "conditions": "for GH (duration of activity) / GH (duration of growth hormone suppression): 1,000 μg/kg", "method": "The animals were kept in separate cages. Twenty minutes before the end of the test, 50 mg/kg Nembutal® was administered to all the rats (i.p.). […] Plasma was separated and growth hormone concentration was determined by radio immunoassay. Comparisons between the control and experimental growth hormone values were evaluated by the Student \"t\" test and statistical significance at the 0.05 level or lower was used as the index of activity. Based upon that test [Brazeau et al., Science, 170, 77 (1973)], the prolonged growth hormone suppression by the compounds of this invention was established. The data obtained for the product of Example 1, illustrative of the duration of activity of the other compounds of this invention, is as follows: […]"}, "glucagon": {"tested_on": "glucagon", "assay": "Arginine-stimulated glucagon level in Nembutal-anaesthetised rats after subcutaneous test compound", "method": "(§1) Albino male rats were administered Nembutal intraperitoneally at a dose of 50 milligrams per kilogram. Fifteen minutes later a subcutaneous injection of the test compound or physiological saline was administered. Ten minutes later 0.5 milliliters of arginine (300 milligrams per milliliter, pH 7.2) is injected into the heart. Five minutes after receipt of the arginine the rats are decapitated and blood is collected into trasylol-EDTA. An appropriate aliquot was assayed for growth hormone, insulin and glucagon."}, "growth hormone [2]": {"tested_on": "growth hormone", "assay": "Arginine-stimulated growth hormone level in Nembutal-anaesthetised rats after subcutaneous test compound", "conditions": "for GH: p<0.01", "method": "as §1"}, "insulin": {"tested_on": "insulin", "assay": "Arginine-stimulated insulin level in Nembutal-anaesthetised rats after subcutaneous test compound", "conditions": "p<0.01", "method": "as §1"}, "[3]": {"conditions": "dose 2,000 μg/kg, control 38 ± 6"}, "[4]": {"conditions": "dose 2,000 μg/kg, control 220 ± 17"}, "[5]": {"conditions": "dose 2,000 μg/kg, control 34 ± 4"}},
  "note": "Where a name gives a salt, the structure may show the parent alone. Positions of bridges follow the written chain, without caps; N, C: chain ends. Non-standard residues stand in square brackets, D forms with d. Residues, ends and D or L forms follow the SMILES beside them.",
  "data": [
    {"compound": "C[C@@H](O)[C@@H]1NC(=O)[C@H](Cc2ccccc2)NC(=O)[C@H]([C@@H](C)O)NC(=O)[C@H](CCCCN)NC(=O)[C@@H](Cc2c[nH]c3ccccc23)NC(=O)[C@H](Cc2ccccc2)NC(=O)[C@H](Cc2ccccc2)NC(=O)[C@@H](CCCNC(=N)N)NC(=O)[C@H](CCCNC(=N)N)NC(=O)[C@@H](N)CSSC[C@@H](C(=O)O)NC(=O)[C@H](CO)NC1=O", "note": "[Ex. 2, L-Cysteinyl-L-arginyl-D-arginyl-L-phenylalanyl-L-phenylalanyl-D-tryptophyl- L-lysyl-L-threonyl-L-phenylalanyl-L-threonyl-L-seryl-L-cysteine cyclic (1→12)-disulfide tetraacetate (salt)] (H-CR[dR]FF[dW]KTFTSC-OH; disulfide 1-12)", "values": [
      {"measurement": "GH (duration of activity)", "setting": "growth hormone [1]; 2 hours, control 303 ± 53, p<0.001", "value": "54 ± 11", "unit": "ng/mL"},
      {"measurement": "GH (duration of activity)", "setting": "growth hormone [1]; 4 hours, control 73 ± 7", "value": "83 ± 9", "unit": "ng/mL"},
      {"measurement": "GLUN", "setting": "glucagon; dose 1,000 μg/kg, control 61 ± 7", "value": "44 ± 8", "unit": "pg/mL"},
      {"measurement": "GH", "setting": "growth hormone [2]; dose 1,000 μg/kg, control 141 ± 14", "value": "4 ± 3", "unit": "ng/mL"},
      {"measurement": "INS", "setting": "insulin; dose 1,000 μg/kg, control 227 ± 19", "value": "89 ± 8", "unit": "µU/mL"}
    ]},
    {"compound": "C[C@@H](O)[C@@H]1NC(=O)[C@H](Cc2ccccc2)NC(=O)[C@H]([C@@H](C)O)NC(=O)[C@H](CCCCN)NC(=O)[C@@H](Cc2c[nH]c3ccccc23)NC(=O)[C@H](Cc2ccccc2)NC(=O)[C@H](Cc2ccccc2)NC(=O)[C@@H](CO)NC(=O)[C@H](CCCNC(=N)N)NC(=O)[C@@H](N)CSSC[C@@H](C(=O)O)NC(=O)[C@H](CO)NC1=O", "note": "[Ex. 3, L-Cysteinyl-L-arginyl-D-seryl-L-phenylalanyl-L-phenylalanyl-D-tryptophyl-L- lysyl-L-threonyl-L-phenylalanyl-L-threonyl-L-seryl-L-cysteine cyclic (1→12)-disulfide triacetate (salt)] (H-CR[dS]FF[dW]KTFTSC-OH; disulfide 1-12)", "values": [
      {"measurement": "GH (duration of activity)", "setting": "growth hormone [1]; 2 hours, control 290 ± 64, p<0.02", "value": "91 ± 29", "unit": "ng/mL"},
      {"measurement": "GH (duration of activity)", "setting": "growth hormone [1]; 4 hours, control 133 ± 38, p<0.1 (not significant)", "value": "57 ± 12", "unit": "ng/mL"},
      {"measurement": "GLUN", "setting": "glucagon; [3]", "value": "26 ± 5", "unit": "pg/mL"},
      {"measurement": "GH", "setting": "growth hormone [2]; [4]", "value": "37 ± 9", "unit": "ng/mL"},
      {"measurement": "INS", "setting": "insulin; [5]", "value": "8 ± 1", "unit": "μU/ml"}
    ]},
    {"compound": "C[C@@H](O)[C@@H]1NC(=O)[C@H](Cc2ccccc2)NC(=O)[C@H]([C@@H](C)O)NC(=O)[C@H](CCCCN)NC(=O)[C@@H](Cc2c[nH]c3ccccc23)NC(=O)[C@H](Cc2ccccc2)NC(=O)[C@H](Cc2ccccc2)NC(=O)[C@@H](Cc2c[nH]cn2)NC(=O)[C@H](CCCNC(=N)N)NC(=O)[C@@H](N)CSSC[C@@H](C(=O)O)NC(=O)[C@H](CO)NC1=O", "note": "[Ex. 4, L-Cysteinyl-L-arginyl-D-histidyl-L-phenylalanyl-L-phenylalanyl-D-tryptophyl-L-lysyl-L-threonyl-L-phenylalanyl-L-threonyl-L-seryl-L-cysteine cyclic (1→12) disulfide tetra-acetate (salt)] (H-CR[dH]FF[dW]KTFTSC-OH; disulfide 1-12)", "values": [
      {"measurement": "GH (duration of activity)", "setting": "growth hormone [1]; 2 hours, control 82 ± 25, p<0.05", "value": "24 ± 5", "unit": "ng/mL"},
      {"measurement": "GH (duration of activity)", "setting": "growth hormone [1]; 4 hours, control 76 ± 28, p<0.1 (not significant)", "value": "20 ± 7", "unit": "ng/mL"},
      {"measurement": "GH (duration of activity)", "setting": "growth hormone [1]; 5 hours, control 171 ± 38, p<0.02", "value": "54 ± 11", "unit": "ng/mL"},
      {"measurement": "GH (duration of activity)", "setting": "growth hormone [1]; 6 hours, control 73 ± 10", "value": "54 ± 13", "unit": "ng/mL"},
      {"measurement": "GLUN", "setting": "glucagon; dose 500 μg/kg, control 44 ± 6", "value": "29 ± 5", "unit": "pg/mL"},
      {"measurement": "GH", "setting": "growth hormone [2]; dose 500 μg/kg, control 119 ± 29", "value": "6 ± 1", "unit": "ng/mL"},
      {"measurement": "INS", "setting": "insulin; dose 500 μg/kg, control 280 ± 15", "value": "127 ± 22", "unit": "μU/ml"}
    ]},
    {"compound": "C[C@@H](O)[C@@H]1NC(=O)[C@H](Cc2ccccc2)NC(=O)[C@H]([C@@H](C)O)NC(=O)[C@H](CCCCN)NC(=O)[C@@H](Cc2c[nH]c3ccccc23)NC(=O)[C@H](Cc2ccccc2)NC(=O)[C@H](Cc2ccccc2)NC(=O)[C@@H](Cc2ccc(O)cc2)NC(=O)[C@H](CCCCN)NC(=O)[C@@H](N)CSSC[C@@H](C(=O)O)NC(=O)[C@H](CO)NC1=O", "note": "[Ex. 5, L-Cysteinyl-L-lysyl-D-tyrosyl-L-phenylalanyl-L-phenylalanyl-D-tryptophyl-L- lysyl-L-threonyl-L-phenylalanyl-L-threonyl-L-seryl-L-cysteine cyclic (1→12) disulfide] (H-CK[dY]FF[dW]KTFTSC-OH; disulfide 1-12)", "values": [
      {"measurement": "GH (duration of growth hormone suppression)", "setting": "growth hormone [1]; 2 hours, control 84 ± 17, p<0.01", "value": "27 ± 5", "unit": "ng/mL"},
      {"measurement": "GH (duration of growth hormone suppression)", "setting": "growth hormone [1]; 2 hours, second experiment, control 80 ± 12", "value": "72 ± 21", "unit": "ng/mL"},
      {"measurement": "GH (duration of growth hormone suppression)", "setting": "growth hormone [1]; 4 hours, control 84 ± 22, p<0.05", "value": "33 ± 4", "unit": "ng/mL"},
      {"measurement": "GH (duration of growth hormone suppression)", "setting": "growth hormone [1]; 5 hours, control (printed 2 hours) 141 ± 51", "value": "113 ± 27", "unit": "ng/mL"}
    ]},
    {"compound": "C[C@@H](O)[C@@H]1NC(=O)[C@H](Cc2ccccc2)NC(=O)[C@H]([C@@H](C)O)NC(=O)[C@H](CCCCN)NC(=O)[C@@H](Cc2c[nH]c3ccccc23)NC(=O)[C@H](Cc2ccccc2)NC(=O)[C@H](Cc2ccccc2)NC(=O)[C@@H](CCCNC(=N)N)NC(=O)[C@H](CCCCN)NC(=O)[C@@H](N)CSSC[C@@H](C(=O)O)NC(=O)[C@H](CO)NC1=O", "note": "[Ex. 6] (H-CK[dR]FF[dW]KTFTSC-OH; disulfide 1-12)", "values": [
      {"measurement": "GH (duration of activity)", "setting": "growth hormone [1]; 2 hours, control 148 ± 25, p<0.01", "value": "53 ± 8", "unit": "ng/mL"},
      {"measurement": "GH (duration of activity)", "setting": "growth hormone [1]; 4 hours, control 73 ± 24, p<0.1", "value": "21 ± 4", "unit": "ng/mL"},
      {"measurement": "GLUN", "setting": "glucagon; [3]", "value": "32 ± 5", "unit": "pg/mL"},
      {"measurement": "GH", "setting": "growth hormone [2]; [4]", "value": "34 ± 8", "unit": "ng/mL"},
      {"measurement": "INS", "setting": "insulin; [5]", "value": "5 ± 1", "unit": "µU/mL"}
    ]},
    {"compound": "C[C@@H](O)[C@@H]1NC(=O)[C@H](CCCCN)NC(=O)[C@@H](Cc2c[nH]c3ccccc23)NC(=O)[C@H](Cc2ccccc2)NC(=O)[C@H](Cc2ccccc2)NC(=O)[C@@H](Cc2ccc(O)cc2)NC(=O)[C@H](CCCNC(=N)N)NC(=O)[C@@H](N)CSSC[C@H](C(=O)O)NC(=O)[C@H](CO)NC(=O)[C@H]([C@@H](C)O)NC(=O)[C@H](Cc2ccccc2)NC1=O", "note": "[L-Cysteinyl-L-arginyl-D-tyrosyl-L-phenylalanyl-L-phenylalanyl-D-tryptophyl- L-lysyl-L-threonyl-L-phenylalanyl-L-threonyl-L-seryl-D-cysteine cyclic (1→12) disuflide] (H-CR[dY]FF[dW]KTFTS[dC]-OH; disulfide 1-12)", "values": [
      {"measurement": "Plasma GH", "setting": "growth hormone [1]; 500 μg/kg SC, 6 hours after injection, control 103 ± 17", "value": "152 ± 27", "unit": "ng/mL"},
      {"measurement": "Plasma GH", "setting": "growth hormone [1]; 1,000 μg/kg SC, 2 hours after injection, control 542 ± 145, p<0.01", "value": "30 ± 5", "unit": "ng/mL"},
      {"measurement": "Plasma GH", "setting": "growth hormone [1]; 1,000 μg/kg SC, 4 hours after injection, control 107 ± 25, p<0.01", "value": "37 ± 6", "unit": "ng/mL"},
      {"measurement": "Plasma GH", "setting": "growth hormone [1]; 1,000 μg/kg SC, 6 hours after injection, control 103 ± 17", "value": "114 ± 22", "unit": "ng/mL"},
      {"measurement": "duration of growth hormone suppression (in words)", "setting": "growth hormone [1]; summary of rat data", "value": "very prolonged activity in suppressing growth hormone blood levels"},
      {"measurement": "GLUN", "setting": "glucagon; dose 100 μg/kg sc, control 46 ± 6, p>0.05", "value": "31 ± 4", "unit": "pg/mL"},
      {"measurement": "GLUN", "setting": "glucagon; dose 3,000 μg/kg sc, control 48 ± 5, p<0.01", "value": "23 ± 4", "unit": "pg/mL"},
      {"measurement": "GH", "setting": "growth hormone [2]; dose 3,000 μg/kg sc, control 176 ± 33", "value": "17 ± 3", "unit": "ng/mL"},
      {"measurement": "reduction of secretion of growth hormone, insulin and glucagon (in words)", "setting": "growth hormone [2]; summary of rat data", "value": "effective agent for reducing secretion of growth hormone, insulin, and glucagon"},
      {"measurement": "INS", "setting": "insulin; dose 100 μg/kg sc, control 43 ± 3", "value": "7 ± 2", "unit": "µU/mL"},
      {"measurement": "INS", "setting": "insulin; dose 3,000 μg/kg sc, control 340 ± 17", "value": "48 ± 9", "unit": "µU/mL"}
    ]},
    {"compound": "C[C@H](N)C(=O)NCC(=O)N[C@H]1CSSC[C@@H](C(=O)O)NC(=O)[C@H](CO)NC(=O)[C@H]([C@@H](C)O)NC(=O)[C@H](Cc2ccccc2)NC(=O)[C@H]([C@@H](C)O)NC(=O)[C@H](CCCCN)NC(=O)[C@H](Cc2c[nH]c3ccccc23)NC(=O)[C@H](Cc2ccccc2)NC(=O)[C@H](Cc2ccccc2)NC(=O)[C@H](CC(N)=O)NC(=O)[C@H](CCCCN)NC1=O", "note": "[SRIF, reference compound]", "values": [
      {"measurement": "GLUN", "setting": "glucagon; dose 200 μg/kg sc, control 46 ± 6, p<0.01", "value": "21 ± 4", "unit": "pg/mL"},
      {"measurement": "INS", "setting": "insulin; dose 200 μg/kg sc, control 43 ± 3", "value": "31 ± 2", "unit": "µU/mL"}
    ]}
  ]
}
